We go through 16 compounds from patent US10676477B2, “Factor XIa macrocycle inhibitors bearing a non-aromatic P2' group” (BRISTOL-MYERS SQUIBB COMPANY, priority 2015, dated 2020).

pKi: −log10 of the molar value. Counter-ions that a name gives are not always drawn.

One test concerns the target T1, human plasma kallikrein (Homo sapiens, UniProt P03952).
T1 construct: purchased Enzyme Research Laboratories
As to the kind of experiment: Plasma kallikrein enzyme inhibition assay (chromogenic substrate S-2302), Ki. It is filed as biochemical. The following applies: purified human plasma kallikrein, substrate S-2302, pH 7.5. Here is the method:
(§1) The effectiveness of compounds of the present invention as inhibitors of the coagulation Factors XIa, VIIa, IXa, Xa, XIIa, plasma kallikrein chymotrypsin, trypsin, or thrombin, can be determined using a relevant purified serine protease, respectively, and an appropriate synthetic substrate. The rate of hydrolysis of the chromogenic or fluorogenic substrate by the relevant serine protease was measured both in the absence and presence of compounds of the present invention. […] A decrease in the rate of absorbance or fluorescence change in the presence of inhibitor is indicative of enzyme inhibition. Such methods are known to one skilled in the art. The results of this assay are expressed as the inhibitory constant, Ki.
Plasma kallikrein determinations were made in 0.1 M sodium phosphate buffer at a pH of 7.5 containing 0.1-0.2 M sodium chloride and 0.5% PEG 8000. Determinations were made using purified human plasma kallikrein (Enzyme Research Laboratories) at a final assay concentration of 200 pM and the synthetic substrate S-2302 (H-(D)-Pro-Phe-Arg-pNA; CHROMOGENIX®) at a concentration of 0.00008-0.0004 M.
(§2) The Michaelis constant, Km, for substrate hydrolysis by each protease, was determined at 25° C. or 37° C. in the absence of inhibitor. Values of Ki were determined by allowing the protease to react with the substrate in the presence of the inhibitor. Reactions were allowed to go for periods of 20-180 minutes (depending on the protease) and the velocities (rate of absorbance or fluorescence change versus time) were measured. The following relationships were used to calculate Ki values: (Vmax*S)/(Km+S) (vo−vs)/vs=I/(Ki*(1+S/Km)) for a competitive inhibitor with one binding site; or vs/vo=A+((B−A)/(1+(IC50/(I)^n)); and Ki=IC50/(1+S/Km) for a competitive inhibitor where: […]

The target in the next test is T2, human Factor XIa (Homo sapiens, UniProt P03951).
T2 construct: purchased Haematologic Technologies
As to the kind of experiment: Factor XIa enzyme inhibition assay (chromogenic substrate S-2366), Ki. The class given is biochemical. The following applies: purified human Factor XIa, substrate S-2366, pH 7.4. As to the method:
as §1
Factor XIa determinations were made in 50 mM HEPES buffer at pH 7.4 containing 145 mM NaCl, 5 mM KCl, and 0.1% PEG 8000 (polyethylene glycol; JT Baker or Fisher Scientific). Determinations were made using purified human Factor XIa at a final concentration of 25-200 pM (Haematologic Technologies) and the synthetic substrate S-2366 (pyroGlu-Pro-Arg-pNA; CHROMOGENIX® or AnaSpec) at a concentration of 0.0002-0.001 M.
as §2

T1 sequence (P03952 391-638 limits assumed): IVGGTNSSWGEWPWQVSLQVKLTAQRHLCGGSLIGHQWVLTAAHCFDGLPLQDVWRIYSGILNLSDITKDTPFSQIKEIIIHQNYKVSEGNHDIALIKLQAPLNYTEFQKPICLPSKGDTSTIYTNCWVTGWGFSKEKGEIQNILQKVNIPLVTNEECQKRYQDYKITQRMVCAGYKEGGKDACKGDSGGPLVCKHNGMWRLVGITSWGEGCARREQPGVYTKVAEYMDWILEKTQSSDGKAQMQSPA
T1 sequence (P03952 20-390 partner limits assumed): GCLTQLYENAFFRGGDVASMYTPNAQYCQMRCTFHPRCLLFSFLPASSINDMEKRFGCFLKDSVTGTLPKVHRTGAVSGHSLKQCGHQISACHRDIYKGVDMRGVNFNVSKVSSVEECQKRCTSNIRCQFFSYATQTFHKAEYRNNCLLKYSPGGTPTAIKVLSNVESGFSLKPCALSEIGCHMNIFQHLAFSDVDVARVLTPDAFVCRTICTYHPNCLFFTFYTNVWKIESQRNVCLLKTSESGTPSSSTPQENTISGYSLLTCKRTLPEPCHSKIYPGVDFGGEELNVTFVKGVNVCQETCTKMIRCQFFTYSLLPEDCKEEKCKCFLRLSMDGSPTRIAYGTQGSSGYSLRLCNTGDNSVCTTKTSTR
T2 sequence (P03951 388-625 limits assumed): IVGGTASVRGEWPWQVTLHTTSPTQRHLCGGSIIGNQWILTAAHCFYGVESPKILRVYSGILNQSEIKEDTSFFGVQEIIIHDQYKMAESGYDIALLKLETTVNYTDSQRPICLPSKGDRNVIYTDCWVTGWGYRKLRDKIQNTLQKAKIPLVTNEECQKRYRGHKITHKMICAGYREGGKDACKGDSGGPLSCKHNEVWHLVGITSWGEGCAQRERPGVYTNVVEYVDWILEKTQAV
T2 sequence (P03951 19-387 partner limits assumed): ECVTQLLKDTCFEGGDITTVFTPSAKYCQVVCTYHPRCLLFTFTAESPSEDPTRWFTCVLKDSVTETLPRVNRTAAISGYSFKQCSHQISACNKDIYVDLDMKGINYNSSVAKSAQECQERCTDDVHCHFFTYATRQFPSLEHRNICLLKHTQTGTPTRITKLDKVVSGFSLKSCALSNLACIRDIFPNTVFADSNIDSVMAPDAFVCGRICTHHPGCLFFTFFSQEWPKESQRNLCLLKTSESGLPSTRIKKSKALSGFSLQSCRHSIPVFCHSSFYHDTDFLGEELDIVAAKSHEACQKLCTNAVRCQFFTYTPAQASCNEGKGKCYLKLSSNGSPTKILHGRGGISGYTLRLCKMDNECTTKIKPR

The pKi is −log10 of the Ki, conventionally taken in molar units. Turning to `CC(C)(C)OC(=O)N1CCN2c3cccc(c3)[C@@H](n3cnc(-c4cc(Cl)ccc4-n4cc(Cl)nn4)cc3=O)CCCCNC(=O)[C@H]2C1` [Example 15, tert-butyl (7R,14S)-14-{4-[5-chloro-2-(4-chloro-1H-1,2,3-triazol-1-yl)phenyl]-6-oxo-1,6-dihydropyrimidin-1-yl}-8-oxo-2,5,9-triazatricyclo[13.3.1.0^2,7]nonadeca-1(19),15,17-triene-5-carboxylate, trifluoromethylacetate], the pKi on human plasma kallikrein is 5.46; at human Factor XIa, 6.31.

Regarding `O=C1NCCCCC[C@H](n2cnc(-c3cc(Cl)ccc3-n3cc(Cl)nn3)cc2=O)c2cccc(c2)N2CCN(C3COC3)C[C@H]12` [Example 16, (7R,15S)-15-{4-[5-chloro-2-(4-chloro-1H-1,2,3-triazol-1-yl)phenyl]-6-oxo-1,6-dihydropyrimidin-1-yl}-5-(oxetan-3-yl)-2,5,9-triazatricyclo[14.3.1.0^2,7]icosa-1(20),16,18-trien-8-one trifluoromethylacetate], the results for the pKi on human plasma kallikrein and at human Factor XIa were 6.28 and 7.89, respectively.

Turning to `CCOC(=O)c1cnc(N2CCN3c4cccc(c4)[C@@H](n4cnc(-c5cc(Cl)ccc5-n5cc(Cl)nn5)cc4=O)CCCCCNC(=O)[C@H]3C2)o1` [Example 17, ethyl 2-[(7R,15S)-15-{4-[5-chloro-2-(4-chloro-1H-1,2,3-triazol-1-yl)phenyl]-6-oxo-1,6-dihydropyrimidin-1-yl}-8-oxo-2,5,9-triazatricyclo[14.3.1.0^2,7]icosa-1(20),16,18-trien-5-yl]-1,3-oxazole-5-carboxylate trifluoromethylacetate], the pKi on human plasma kallikrein is 5.91; on human Factor XIa it was 7.80.

For the compound `Cc1c(C(=O)N[C@H]2CCCCCNC(=O)[C@H]3CN(C(=O)OC(C)(C)C)CCN3c3cccc2c3)cnn1-c1cccc(Cl)c1F` [Example 18, tert-butyl (7R,15S)-15-[1-(3-chloro-2-fluorophenyl)-5-methyl-1H-pyrazole-4-amido]-8-oxo-2,5,9-triazatricyclo[14.3.1.0^2,7]icosa-1(20),16,18-triene-5-carboxylate, trifluoromethylacetate], the pKi at human plasma kallikrein is 5.42; at human Factor XIa, 5.48.

Regarding `CC(C)(C)OC(=O)N1CCN2c3cccc(c3)[C@@H](n3cnc(-c4c(-n5cc(Cl)nn5)ccc(Cl)c4F)cc3=O)CCCCCNC(=O)[C@H]2C1` [Example 19, tert-butyl (7R,15S)-15-{4-[3-chloro-6-(4-chloro-1H-1,2,3-triazol-1-yl)-2-fluorophenyl]-6-oxo-1,6-dihydropyrimidin-1-yl}-8-oxo-2,5,9-triazatricyclo[14.3.1.0^2,7]icosa-(20),16,18-triene-5-carboxylate trifluoromethylacetate], the values for the pKi at human plasma kallikrein and on human Factor XIa were 6.46 and 8.30, respectively.

With `Cc1c(C(=O)N[C@H]2CCCCCNC(=O)[C@H]3CNCCN3c3cccc2c3)cnn1-c1cccc(Cl)c1F` [Example 20, 1-(3-chloro-2-fluorophenyl)-5-methyl-N-[(7R,15S)-8-oxo-2,5,9-triazatricyclo[14.3.1.0^2,7]icosa-1(20),16,18-trien-15-yl]-1H-pyrazole-4-carboxamide hydrochloride], the pKi is 5.59 on human plasma kallikrein and 5.88 on human Factor XIa.

Consider `COC(=O)N1CCN2c3cccc(c3)[C@@H](NC(=O)c3cnn(-c4cccc(Cl)c4F)c3C)CCCCCNC(=O)[C@H]2C1` [Example 21, methyl (7R,15S)-15-[1-(3-chloro-2-fluorophenyl)-5-methyl-1H-pyrazole-4-amido]-8-oxo-2,5,9-triazatricyclo[14.3.1.0^2,7]icosa-1(20),16,18-triene-5-carboxylate, trifluoromethyl acetate], for which the results for the pKi at human plasma kallikrein and at human Factor XIa were 5.04 and 5.98, respectively.

On to `COC(=O)N1CCN2c3cccc(c3)[C@@H](N3CCC(c4cc(Cl)ccc4-n4cc(Cl)nn4)=CC3=O)CCCCCNC(=O)[C@H]2C1` [Example 22, methyl (7R,15S)-15-{4-[5-chloro-2-(4-chloro-1H-1,2,3-triazol-1-yl)phenyl]-6-oxo-1,2,3,6-tetrahydropyridin-1-yl}-8-oxo-2,5,9-triazatricyclo[14.3.1.0^2,7]icosa-1(20),16,18-triene-5-carboxylate trifluoromethyl acetate], for which the pKi was 6.72 on human plasma kallikrein and 8.30 on human Factor XIa.

Regarding `COC(=O)NC[C@H]1Nc2cccc(c2)[C@@H](n2cnc(-c3cc(Cl)ccc3-n3cc(Cl)nn3)cc2=O)CCCCCNC1=O` [Example 23, methyl N-{[(3R,11S)-11-{4-[5-chloro-2-(4-chloro-1H-1,2,3-triazol-1-yl)phenyl]-6-oxo-1,6-dihydropyrimidin-1-yl}-4-oxo-2,5-diazabicyclo[10.3.1]hexadeca-1(16),12,14-trien-3-yl]methyl}carbamate trifluoromethyl acetate], the pKi on human plasma kallikrein was 5.57; at human Factor XIa, 7.57.

As to `O=C(NC[C@H]1Nc2cccc(c2)[C@@H](n2cnc(-c3cc(Cl)ccc3-n3cc(Cl)nn3)cc2=O)CCCCCNC1=O)c1cccnc1` [Example 24, N-{[(3R,11S)-11-{4-[5-chloro-2-(4-chloro-1H-1,2,3-triazol-1-yl)phenyl]-6-oxo-1,6-dihydropyrimidin-1-yl}-4-oxo-2,5-diazabicyclo[10.3.1]hexadeca-1(16),12,14-trien-3-yl]methyl}pyridine-3-carboxamide trifluoromethylacetate], the negative-log Ki (pKi) is 5.28 on human plasma kallikrein and 7.21 on human Factor XIa.

`O=C1CN2c3cccc(c3)[C@@H](n3cnc(-c4cc(Cl)ccc4-n4cc(Cl)nn4)cc3=O)CCCCCNC(=O)C2CN1` (stereo partly drawn) [Example 25, (15S)-15-{4-[5-chloro-2-(4-chloro-1H-1,2,3-triazol-1-yl)phenyl]-6-oxo-1,6-dihydropyrimidin-1-yl}-2,5,9-triazatricyclo[14.3.1.0^2,7]icosa-1(20),16,18-triene-4,8-dione]: the pKi was 5.17 at human plasma kallikrein and 7.29 on human Factor XIa.

In the case of `CC(C)(C)OC(=O)NCC[C@H]1Nc2cccc(c2)[C@@H](n2cnc(-c3cc(Cl)ccc3-n3cc(Cl)nn3)cc2=O)CCCCCNC1=O` [Example 26, tert-butyl N-{2-[(3R,11S)-11-{4-[5-chloro-2-(4-chloro-1H-1,2,3-triazol-1-yl)phenyl]-6-oxo-1,6-dihydropyrimidin-1-yl}-4-oxo-2,5-diazabicyclo[10.3.1]hexadeca-1(16),12,14-trien-3-yl]ethyl}carbamate trifluoromethylacetate], the pKi on human plasma kallikrein was 6.37; on human Factor XIa, 7.62.

As to `NCC[C@H]1Nc2cccc(c2)[C@@H](n2cnc(-c3cc(Cl)ccc3-n3cc(Cl)nn3)cc2=O)CCCCCNC1=O` [Example 27, (3R,11S)-3-(2-aminoethyl)-11-{4-[5-chloro-2-(4-chloro-1H-1,2,3-triazol-1-yl)phenyl]-6-oxo-1,6-dihydropyrimidin-1-yl}-2,5-diazabicyclo[10.3.1]hexadeca-1(16),12,14-trien-4-one hydrochloride], the pKi is 4.85 at human plasma kallikrein and 6.06 at human Factor XIa.

`COC(=O)NCC[C@H]1Nc2cccc(c2)[C@@H](n2cnc(-c3cc(Cl)ccc3-n3cc(Cl)nn3)cc2=O)CCCCCNC1=O` [Example 28, methyl N-{2-[(3R,11S)-11-{4-[5-chloro-2-(4-chloro-1H-1,2,3-triazol-1-yl)phenyl]-6-oxo-1,6-dihydropyrimidin-1-yl}-4-oxo-2,5-diazabicyclo[10.3.1]hexadeca-1(16),12,14-trien-3-yl]ethyl}carbamate trifluoromethyl acetate]: the pKi is 7.08 on human plasma kallikrein and 8.30 on human Factor XIa.

As for `O=C(NCC[C@H]1Nc2cccc(c2)[C@@H](n2cnc(-c3cc(Cl)ccc3-n3cc(Cl)nn3)cc2=O)CCCCCNC1=O)c1ccn(C(F)F)n1` [Example 29, N-{2-[(3R,11S)-11-{4-[5-chloro-2-(4-chloro-1H-1,2,3-triazol-1-yl)phenyl]-6-oxo-1,6-dihydropyrimidin-1-yl}-4-oxo-2,5-diazabicyclo[10.3.1]hexadeca-1(16),12,14-trien-3-yl]ethyl}-1-(difluoromethyl)-1H-pyrazole-3-carboxamide trifluoromethyl acetate], the pKi on human plasma kallikrein is 7.31; on human Factor XIa it was 8.30.

On to `COC(=O)NCC[C@@H]1Nc2cccc(c2)[C@@H](n2cnc(-c3cc(Cl)ccc3-n3cc(Cl)nn3)cc2=O)CCCCCNC1=O` [Example 30, methyl N-{2-[(3S,11S)-11-{4-[5-chloro-2-(4-chloro-1H-1,2,3-triazol-1-yl)phenyl]-6-oxo-1,6-dihydropyrimidin-1-yl}-4-oxo-2,5-diazabicyclo[10.3.1]hexadeca-1(16),12,14-trien-3-yl]ethyl}carbamate trifluoromethyl acetate], for which the results for the negative-log Ki (pKi) on human plasma kallikrein and at human Factor XIa were 5.25 and 6.29, respectively.
